Source: patent US10363263B2, “Anti-aging compositions and methods for using same” (Prescient Pharma LLC, priority 2015, dated 2019)

Key:
[1] = tested on: normal human colon fibroblast cell line CCD 841 CoN (CRL-1790, ATCC); test: Senescence beta-galactosidase staining of aged normal human colon fibroblasts (Examples 1 and 2); assay type: cell-based; conditions: 48 hours; for effect on beta-galactosidase staining in comparison with non-treated controls: monotherapy, 0.15 μM lithium carbonate or 0.25 mM glycyrrhizic acid; for visible positive beta-galactosidase staining (FIGS. 1-4): visual, light microscope 100×, 0.15 μM lithium carbonate and/or 0.25 mM glycyrrhizic acid
Protocol: Aging-associated beta-galactosidase is widely used as a biomarker of senescence. Here we investigated senescence-associated-beta-galactosidase activity of human colon fibroblast cells by visual assessment.
In this Example, the effect of treatment with lithium and glycyrrhizic acid separately, and as a fixed combination, was evaluated on normal human colon fibroblast cell line CCD 841 CoN (CRL-1790, ATCC).
Group 4 (flasks 10-12, control), the medium was changed to fresh compete EMEM medium without drugs as controls.
FIGS. 1-4 show pictures of the staining results for each of the groups, respectively.
Digital pictures showing the staining results for each of the 12 flasks were then independently examined and scored for percentage of area of green (positive) staining based on pixels, with and without background subtraction.
Higher values reflect more intensive green staining which corresponds to more aged cells.
Group#9 contained complete EMEM medium with glycyrrhizic acid 0.25 mM.
Group#10 contained complete EMEM medium only and was used as a control.
FIGS. 6-15 show pictures of the staining results for each of the groups, respectively.

[2] = tested on: wild-type N2 Bristol strain of C. elegans; test: C. elegans longevity study (Example 4); assay type: in vivo; conditions: for longevity effect: monotherapy; for Restricted mean Days (survival): control 15.53
Protocol: In this fourth Example, the effect of treatment with lithium and Glycyrrhizic acid separately, and as a fixed combination, was further evaluated on the wild-type N2 Bristol strain of C. elegans. Worm stocks were maintained on nematode growth medium (NGM) dishes containing 10 μg/mL cholesterol (Cat. No. C8667; Sigma-Aldrich, Saint Louis, Mo., USA). Dishes were seeded with OP50 Escherichia coli as a food source. Twelve polystyrene petri dishes (35 mm diameter) were prepared by filling with NGM agar containing […] cholesterol, and 25 μM 5-Fluoro-2′-deoxyuridine to suppress reproduction (FUDR; Cat. No. F0503; Sigma-Aldrich, Saint Louis, Mo., USA). The dishes were seeded with OP50 Escherichia coli as a food source. Duplicate dishes were used for each group. The treatment drug was dissolved in deionized water, and added to the dishes for the groups as explained below: […] Group#5: Glycyrrhizic acid in concentration of 0.25 mM Group#6: untreated (control) NGM-agar treatment plates containing cholesterol (10 μg/mL) and 25 μM 5-Fluoro-2′-deoxyuridine (FUDR; Cat. No. F0503; Sigma-Aldrich, Saint Louis, Mo., USA) to suppress reproduction. […] The survival data for the various groups are also depicted in FIG. 17.

[3] = lithium carbonate 15 or 0.15 μM as in the label, Ga = glycyrrhizic acid 0.25 mM
[4] = lithium carbonate 15 or 0.15 μM as in the label, Ga = glycyrrhizic acid 0.25 mM, listed as Li0.15 uM
[5] = lithium carbonate 15 or 0.15 μM as in the label, Ga = glycyrrhizic acid 0.25 mM, listed as Li15 uM

Compound | effect on beta-galactosidase staining in comparison with non-treated controls [1] | visible positive beta-galactosidase staining (FIGS. 1-4) [1] | Age in days at 100% mortality [2, 3] [days] | longevity effect [2] | Age in days at 50% mortality [2, 3] [days] | Age in days at 75% mortality [2, 3] [days] | Age in days at 90% mortality [2, 3] [days] | Restricted mean Days (survival) [2, 4] [days] | Restricted mean Days (survival) [2, 5] [days] | Age in days at 25% mortality [2, 4] [days] | Age in days at 25% mortality [2, 5] [days]
CC1(C)[C@@H](O[C@H]2O[C@H](C(=O)O)[C@@H](O)[C@H](O)[C@H]2O[C@@H]2O[C@H](C(=O)O)[C@@H](O)[C@H](O)[C@H]2O)CC[C@]2(C)[C@H]3C(=O)C=C4[C@@H]5C[C@@](C)(C(=O)O)CC[C@]5(C)CC[C@@]4(C)[C@]3(C)CC[C@@H]12 [glycyrrhizic acid, (3β,20β)-20-carboxy-11-oxo-30-norolean-12-en-3-yl 2-O-β-D-glucopyranuronosyl-α-D-glucopyranosiduronic acid] | did not appear to have significant effect | stained positively | 20 | not observed |  |  |  |  |  |  | 
O=C([O-])[O-].[Li+].[Li+] [lithium carbonate] | did not appear to have significant effect | stained positively | 19 | not observed | 15 | 16 | 18 | 14.88 | 14.56 | 13 | 14
